Results: the supplement of paper PMC13207355
Counter-ions that a name gives are not always drawn.

Assays:
Conditions in all cases: exposure time: 72 h
[1] = test system: FT3469 (normal neural stem cell line); assay: surviving fraction (nuclei count normalised to DMSO); higher = more cells surviving (less toxic)
[2] = test system: E13 (patient-derived glioblastoma stem cells of classical subtype); assay: as above
[3] = test system: E28 (patient-derived glioblastoma stem cells of classical subtype); assay: as above
[4] = test system: E57 (patient-derived glioblastoma stem cells of mesenchymal subtype); assay: as above
[5] = test system: E34 (patient-derived glioblastoma stem cells of proneural subtype); assay: as above
[6] = test system: E21 (patient-derived glioblastoma stem cells of mesenchymal subtype); assay: as above
[7] = test system: E31 (patient-derived glioblastoma stem cells of proneural subtype); assay: as above
[8] = test system: FT3469; assay: phenotypic distance (Euclidean, principal components) from DMSO controls (arbitrary units); higher = stronger morphological change
[9] = test system: E13; assay: as above
[10] = test system: E28; assay: as above
[11] = test system: E57; assay: as above
[12] = test system: E34; assay: as above
[13] = test system: E21; assay: as above
[14] = test system: E31; assay: as above
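Throughout, for phenotypic distance (Euclidean, principal components) from DMSO controls: cell Painting imaging in 384-well plates, CellProfiler features reduced to at least 20 principal components, Euclidean distance versus same-plate DMSO vehicle wells (0.1% v/v), median over six images per well.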
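Throughout, for surviving fraction (nuclei count normalised to DMSO): nuclei counted by high-content imaging of Hoechst-stained cells in laminin-coated 384-well plates, relative to 0.1% DMSO vehicle wells, with staurosporine as cell-death control.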

CC(C)NCC(O)c1cc(O)cc(O)c1 (stereo unspecified) [Metaproterenol sulfate, orciprenaline sulfate]
Conditions	phenotypic distance	surviving fraction
[1], 4.1 nM	–	1.18
[1], 12.3 nM	–	1.32
[1], 37 nM	–	1.05
[1], 111.1 nM	–	1.14
[1], 333.3 nM	–	1.13
[1], 1000 nM	–	1.04
[1], 3000 nM	–	1.22
[2], 4.1 nM	–	0.979
[2], 12.3 nM	–	0.957
[2], 37 nM	–	1.06
[2], 111.1 nM	–	0.933
[2], 333.3 nM	–	1.06
[2], 1000 nM	–	0.995
[2], 3000 nM	–	1.06
[3], 4.1 nM	–	1.2
[3], 12.3 nM	–	1.1
[3], 37 nM	–	1.06
[3], 111.1 nM	–	1.14
[3], 333.3 nM	–	1.21
[3], 1000 nM	–	1.04
[3], 3000 nM	–	1.13
[4], 4.1 nM	–	1.18
[4], 12.3 nM	–	1.11
[4], 37 nM	–	1.14
[4], 111.1 nM	–	0.953
[4], 333.3 nM	–	1.07
[4], 1000 nM	–	1.18
[4], 3000 nM	–	1.02
[5], 4.1 nM	–	0.922
[5], 12.3 nM	–	1.02
[5], 37 nM	–	1.04
[5], 111.1 nM	–	0.924
[5], 333.3 nM	–	1.02
[5], 1000 nM	–	1.24
[5], 3000 nM	–	0.961
[6], 4.1 nM	–	1
[6], 12.3 nM	–	0.995
[6], 37 nM	–	1.01
[6], 111.1 nM	–	1.05
[6], 333.3 nM	–	1.13
[6], 1000 nM	–	1.02
[6], 3000 nM	–	1.07
[7], 4.1 nM	–	0.982
[7], 12.3 nM	–	1.02
[7], 37 nM	–	0.984
[7], 111.1 nM	–	1.14
[7], 333.3 nM	–	1.02
[7], 1000 nM	–	1.13
[7], 3000 nM	–	1.03
[8], 4.1 nM	1.07	–
[8], 12.3 nM	1.13	–
[8], 37 nM	0.697	–
[8], 111.1 nM	0.559	–
[8], 333.3 nM	0.916	–
[8], 1000 nM	1.01	–
[8], 3000 nM	1.08	–
[9], 4.1 nM	0.452	–
[9], 12.3 nM	0.546	–
[9], 37 nM	0.581	–
[9], 111.1 nM	0.458	–
[9], 333.3 nM	0.743	–
[9], 1000 nM	0.439	–
[9], 3000 nM	0.72	–
[10], 4.1 nM	0.775	–
[10], 12.3 nM	0.464	–
[10], 37 nM	0.677	–
[10], 111.1 nM	0.689	–
[10], 333.3 nM	1.06	–
[10], 1000 nM	0.558	–
[10], 3000 nM	0.934	–
[11], 4.1 nM	0.966	–
[11], 12.3 nM	0.872	–
[11], 37 nM	0.874	–
[11], 111.1 nM	0.737	–
[11], 333.3 nM	1	–
[11], 1000 nM	0.774	–
[11], 3000 nM	0.716	–
[12], 4.1 nM	0.654	–
[12], 12.3 nM	0.671	–
[12], 37 nM	0.473	–
[12], 111.1 nM	0.805	–
[12], 333.3 nM	0.747	–
[12], 1000 nM	0.882	–
[12], 3000 nM	0.769	–
[13], 4.1 nM	0.506	–
[13], 12.3 nM	0.541	–
[13], 37 nM	0.821	–
[13], 111.1 nM	2.96	–
[13], 333.3 nM	0.869	–
[13], 1000 nM	0.684	–
[13], 3000 nM	0.751	–
[14], 4.1 nM	0.663	–
[14], 12.3 nM	0.455	–
[14], 37 nM	0.562	–
[14], 111.1 nM	0.625	–
[14], 333.3 nM	0.672	–
[14], 1000 nM	0.447	–
[14], 3000 nM	0.615	–

CCc1c2c(nc3ccc(OC(=O)N4CCC(N5CCCCC5)CC4)cc13)-c1cc3c(c(=O)n1C2)COC(=O)[C@]3(O)CC [Irinotecan]
Conditions	phenotypic distance	surviving fraction
[1], 4.1 nM	–	1.03
[1], 12.3 nM	–	0.94
[1], 37 nM	–	0.96
[1], 111.1 nM	–	0.904
[1], 333.3 nM	–	0.739
[1], 1000 nM	–	0.748
[1], 3000 nM	–	0.648
[2], 4.1 nM	–	0.966
[2], 12.3 nM	–	1.03
[2], 37 nM	–	1
[2], 111.1 nM	–	0.975
[2], 333.3 nM	–	0.974
[2], 1000 nM	–	0.784
[2], 3000 nM	–	0.418
[3], 4.1 nM	–	1.21
[3], 12.3 nM	–	1.07
[3], 37 nM	–	1.07
[3], 111.1 nM	–	0.969
[3], 333.3 nM	–	0.765
[3], 1000 nM	–	0.541
[3], 3000 nM	–	0.302
[4], 4.1 nM	–	1.08
[4], 12.3 nM	–	1.02
[4], 37 nM	–	0.935
[4], 111.1 nM	–	0.931
[4], 333.3 nM	–	1.01
[4], 1000 nM	–	0.658
[4], 3000 nM	–	0.189
[5], 4.1 nM	–	1.01
[5], 12.3 nM	–	0.922
[5], 37 nM	–	0.796
[5], 111.1 nM	–	0.981
[5], 333.3 nM	–	0.942
[5], 1000 nM	–	0.675
[5], 3000 nM	–	0.542
[6], 4.1 nM	–	1.03
[6], 12.3 nM	–	1.08
[6], 37 nM	–	0.918
[6], 111.1 nM	–	1.03
[6], 333.3 nM	–	0.883
[6], 1000 nM	–	0.589
[6], 3000 nM	–	0.124
[7], 4.1 nM	–	0.946
[7], 12.3 nM	–	1.1
[7], 37 nM	–	0.899
[7], 111.1 nM	–	0.922
[7], 333.3 nM	–	0.946
[7], 1000 nM	–	0.579
[7], 3000 nM	–	0.144
[8], 4.1 nM	0.701	–
[8], 12.3 nM	1.1	–
[8], 37 nM	1.06	–
[8], 111.1 nM	1.22	–
[8], 333.3 nM	1.84	–
[8], 1000 nM	2.27	–
[8], 3000 nM	2.46	–
[9], 4.1 nM	0.394	–
[9], 12.3 nM	1.01	–
[9], 37 nM	0.761	–
[9], 111.1 nM	0.76	–
[9], 333.3 nM	1.35	–
[9], 1000 nM	2.55	–
[9], 3000 nM	5.65	–
[10], 4.1 nM	0.5	–
[10], 12.3 nM	0.951	–
[10], 37 nM	0.608	–
[10], 111.1 nM	0.966	–
[10], 333.3 nM	1.51	–
[10], 1000 nM	3.61	–
[10], 3000 nM	4.49	–
[11], 4.1 nM	0.685	–
[11], 12.3 nM	0.929	–
[11], 37 nM	0.554	–
[11], 111.1 nM	0.781	–
[11], 333.3 nM	1.52	–
[11], 1000 nM	3.59	–
[11], 3000 nM	7.66	–
[12], 4.1 nM	0.814	–
[12], 12.3 nM	0.597	–
[12], 37 nM	0.83	–
[12], 111.1 nM	0.866	–
[12], 333.3 nM	2.22	–
[12], 1000 nM	4.25	–
[12], 3000 nM	3.72	–
[13], 4.1 nM	0.618	–
[13], 12.3 nM	1.21	–
[13], 37 nM	0.691	–
[13], 111.1 nM	1.31	–
[13], 333.3 nM	1.88	–
[13], 1000 nM	3.97	–
[13], 3000 nM	5.51	–
[14], 4.1 nM	0.6	–
[14], 12.3 nM	0.75	–
[14], 37 nM	0.721	–
[14], 111.1 nM	0.569	–
[14], 333.3 nM	1.07	–
[14], 1000 nM	1.39	–
[14], 3000 nM	3.35	–
